Experimental findings from PMC2844127 (Journal of medicinal chemistry, 2010) are described below.

For test [1], the target named is dopamine hD3 receptor (Homo sapiens, UniProt P35462). The experiment in a line: Stimulation of [35S]GTPγS binding, hD3 receptors expressed in CHO cells. The class given is biochemical. The settings on record: read-out: %Emax, CHO-D3.
The test system of test [2] is 6-OHDA lesioned rats. The experiment in a line: Rotational experiment with 6-OHDA lesioned rats. The class given is in vivo, rat.
The target of test [3] is dopamine rD3 receptor (Rattus norvegicus, UniProt P19020). To be noted: ratio of Ki D2L to Ki D3.
Chain of dopamine rD3 receptor (P19020 whole entry): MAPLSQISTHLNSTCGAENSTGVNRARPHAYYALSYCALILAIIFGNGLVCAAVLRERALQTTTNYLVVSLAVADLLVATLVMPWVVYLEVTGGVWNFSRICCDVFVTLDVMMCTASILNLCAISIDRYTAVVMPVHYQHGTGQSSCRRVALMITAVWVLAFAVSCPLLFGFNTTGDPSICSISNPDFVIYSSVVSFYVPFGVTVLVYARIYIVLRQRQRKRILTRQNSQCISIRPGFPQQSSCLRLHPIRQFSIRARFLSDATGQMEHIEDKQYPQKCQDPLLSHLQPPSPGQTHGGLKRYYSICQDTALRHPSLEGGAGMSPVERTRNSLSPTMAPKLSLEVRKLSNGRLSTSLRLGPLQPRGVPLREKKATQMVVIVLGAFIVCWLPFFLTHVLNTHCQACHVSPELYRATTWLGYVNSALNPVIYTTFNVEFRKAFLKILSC

Chain of dopamine hD3 receptor (P35462 whole entry): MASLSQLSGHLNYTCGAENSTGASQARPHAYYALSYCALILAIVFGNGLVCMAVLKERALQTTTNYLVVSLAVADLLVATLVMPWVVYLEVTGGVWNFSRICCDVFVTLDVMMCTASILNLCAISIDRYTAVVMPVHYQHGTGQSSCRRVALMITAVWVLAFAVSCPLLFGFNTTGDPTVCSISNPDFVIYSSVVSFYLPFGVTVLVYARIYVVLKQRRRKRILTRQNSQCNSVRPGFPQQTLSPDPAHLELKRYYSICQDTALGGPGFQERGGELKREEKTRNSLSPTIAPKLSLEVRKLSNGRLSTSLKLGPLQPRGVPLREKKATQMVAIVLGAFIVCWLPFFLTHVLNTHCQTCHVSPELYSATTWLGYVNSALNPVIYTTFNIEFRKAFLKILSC

By Emax is commonly meant the maximal effect, on the per cent scale that the assay sets. In the case of `CCCN(CCC)CCc1cccc2c1CC(=O)N2` [Ropinirole], in test [1], the Emax came out at 66.6 ± 8.1%. Besides, the rotational activity entry in test [2] (5 µMol/kg) is listed as “much less rotations with shorter duration of action”. `CCCN(CCN1CCN(Cc2ccc(O)c3ncccc23)CC1)C1CCc2c(O)cccc2C1` (centres unmarked) [Compound 12b, 5-((4-(2-((5-hydroxy-1,2,3,4-tetrahydronaphthalen-2-yl)(propyl)amino)ethyl)piperazin-1-yl)methyl)quinolin-8-ol]: the D2L/D3 in test [3] amounted to 11.2.

On to `CN1CCc2cccc3c2[C@H]1Cc1ccc(O)c(O)c1-3` [apomorphine], for which the “average rotation (contralateral)” value in test [2] (0.05 mg/kg, 21 days post lesion, recorded for 30 min, four rats) is listed as more than 250. For the compound `CCCN(CCN1CCN(Cc2ccc(O)c3ncccc23)CC1)C1CCc2ccc(O)cc2C1` (centres unmarked) [Compound 12a, 5-((4-(2-((7-hydroxy-1,2,3,4-tetrahydronaphthalen-2-yl)(propyl)amino)ethyl)piperazin-1-yl)methyl) quinolin-8-ol], the D2L/D3 in test [3] is 15.4.
